± gives the expanded uncertainty stated by the source.
Settings: Liquid, Vibrating tube method

CCCO [propan-1-ol]
Settings	mass density [kg/m3]
313.15 K, 100 kPa	787.65 ± 4.7
313.15 K, 1020 kPa	788.65 ± 4.7
313.15 K, 2000 kPa	789.51 ± 4.7
313.15 K, 3010 kPa	790.39 ± 4.7
313.15 K, 4020 kPa	791.23 ± 4.8
313.15 K, 5020 kPa	792.09 ± 4.8
313.15 K, 6010 kPa	792.93 ± 4.8
313.15 K, 7020 kPa	793.75 ± 4.8
313.15 K, 8030 kPa	794.57 ± 4.8
313.15 K, 9010 kPa	795.39 ± 4.8
313.15 K, 10020 kPa	796.2 ± 4.8
313.15 K, 11010 kPa	796.99 ± 4.8
313.15 K, 12020 kPa	797.79 ± 4.8
313.15 K, 13010 kPa	798.57 ± 4.8
313.15 K, 14020 kPa	799.35 ± 4.8
313.15 K, 15030 kPa	800.12 ± 4.8
313.15 K, 16010 kPa	800.88 ± 4.8
313.15 K, 17020 kPa	801.63 ± 4.8
313.15 K, 18010 kPa	802.39 ± 4.8
313.15 K, 19020 kPa	803.13 ± 4.8
313.15 K, 20010 kPa	803.87 ± 4.8
323.15 K, 100 kPa	779.29 ± 4.7
323.15 K, 1020 kPa	780.33 ± 4.7
323.15 K, 2020 kPa	781.26 ± 4.7
323.15 K, 3010 kPa	782.17 ± 4.7
323.15 K, 4030 kPa	783.07 ± 4.7
323.15 K, 5010 kPa	783.96 ± 4.7
323.15 K, 6010 kPa	784.85 ± 4.7
323.15 K, 7000 kPa	785.72 ± 4.7
323.15 K, 8010 kPa	786.58 ± 4.7
323.15 K, 9020 kPa	787.44 ± 4.7
323.15 K, 10030 kPa	788.29 ± 4.7
323.15 K, 11020 kPa	789.12 ± 4.7
323.15 K, 12010 kPa	789.95 ± 4.7
323.15 K, 13020 kPa	790.78 ± 4.8
323.15 K, 14030 kPa	791.59 ± 4.8
323.15 K, 15030 kPa	792.41 ± 4.8
323.15 K, 16000 kPa	793.2 ± 4.8
323.15 K, 17010 kPa	794 ± 4.8
323.15 K, 18030 kPa	794.78 ± 4.8
323.15 K, 19030 kPa	795.56 ± 4.8
323.15 K, 20020 kPa	796.33 ± 4.8
333.15 K, 100 kPa	770.58 ± 4.6
333.15 K, 1030 kPa	771.74 ± 4.6
333.15 K, 2020 kPa	772.72 ± 4.6
333.15 K, 3020 kPa	773.69 ± 4.6
333.15 K, 4030 kPa	774.64 ± 4.7
333.15 K, 5020 kPa	775.59 ± 4.7
333.15 K, 6020 kPa	776.52 ± 4.7
333.15 K, 7010 kPa	777.45 ± 4.7
333.15 K, 8020 kPa	778.36 ± 4.7
333.15 K, 9010 kPa	779.27 ± 4.7
333.15 K, 10030 kPa	780.16 ± 4.7
333.15 K, 11020 kPa	781.05 ± 4.7
333.15 K, 12030 kPa	781.93 ± 4.7
333.15 K, 13010 kPa	782.79 ± 4.7
333.15 K, 14030 kPa	783.65 ± 4.7
333.15 K, 15030 kPa	784.5 ± 4.7
333.15 K, 16000 kPa	785.34 ± 4.7
333.15 K, 17030 kPa	786.17 ± 4.7
333.15 K, 18010 kPa	787 ± 4.7
333.15 K, 19020 kPa	787.81 ± 4.7
333.15 K, 20000 kPa	788.62 ± 4.7
343.15 K, 100 kPa	761.6 ± 4.6
343.15 K, 1010 kPa	762.86 ± 4.6
343.15 K, 2020 kPa	763.91 ± 4.6
343.15 K, 3000 kPa	764.93 ± 4.6
343.15 K, 4020 kPa	765.95 ± 4.6
343.15 K, 5020 kPa	766.96 ± 4.6
343.15 K, 6020 kPa	767.95 ± 4.6
343.15 K, 7030 kPa	768.93 ± 4.6
343.15 K, 8020 kPa	769.91 ± 4.6
343.15 K, 9000 kPa	770.86 ± 4.6
343.15 K, 10020 kPa	771.81 ± 4.6
343.15 K, 11030 kPa	772.74 ± 4.6
343.15 K, 12020 kPa	773.67 ± 4.7
343.15 K, 13010 kPa	774.59 ± 4.7
343.15 K, 14000 kPa	775.49 ± 4.7
343.15 K, 15010 kPa	776.39 ± 4.7
343.15 K, 16020 kPa	777.28 ± 4.7
343.15 K, 17020 kPa	778.16 ± 4.7
343.15 K, 18000 kPa	779.02 ± 4.7
343.15 K, 19020 kPa	779.89 ± 4.7
343.15 K, 20010 kPa	780.74 ± 4.7
353.15 K, 100 kPa	752.39 ± 4.5
353.15 K, 1010 kPa	753.65 ± 4.5
353.15 K, 2010 kPa	754.76 ± 4.5
353.15 K, 2990 kPa	755.86 ± 4.5
353.15 K, 4000 kPa	756.96 ± 4.5
353.15 K, 5000 kPa	758.04 ± 4.5
353.15 K, 6000 kPa	759.1 ± 4.6
353.15 K, 7010 kPa	760.14 ± 4.6
353.15 K, 7990 kPa	761.16 ± 4.6
353.15 K, 8990 kPa	762.2 ± 4.6
353.15 K, 9990 kPa	763.21 ± 4.6
353.15 K, 11010 kPa	764.2 ± 4.6
353.15 K, 12010 kPa	765.19 ± 4.6
353.15 K, 13000 kPa	766.16 ± 4.6
353.15 K, 14010 kPa	767.13 ± 4.6
353.15 K, 15010 kPa	768.07 ± 4.6
353.15 K, 16010 kPa	769.01 ± 4.6
353.15 K, 17010 kPa	769.94 ± 4.6
353.15 K, 17990 kPa	770.86 ± 4.6
353.15 K, 18990 kPa	771.76 ± 4.6
353.15 K, 19990 kPa	772.67 ± 4.6
363.15 K, 100 kPa	743.01 ± 4.5
363.15 K, 1020 kPa	744.08 ± 4.5
363.15 K, 2030 kPa	745.28 ± 4.5
363.15 K, 3030 kPa	746.48 ± 4.5
363.15 K, 4020 kPa	747.65 ± 4.5
363.15 K, 5000 kPa	748.81 ± 4.5
363.15 K, 6020 kPa	749.94 ± 4.5
363.15 K, 7020 kPa	751.07 ± 4.5
363.15 K, 8010 kPa	752.18 ± 4.5
363.15 K, 9000 kPa	753.27 ± 4.5
363.15 K, 10030 kPa	754.35 ± 4.5
363.15 K, 11010 kPa	755.41 ± 4.5
363.15 K, 12010 kPa	756.47 ± 4.5
363.15 K, 13010 kPa	757.5 ± 4.5
363.15 K, 14000 kPa	758.53 ± 4.6
363.15 K, 15020 kPa	759.54 ± 4.6
363.15 K, 16010 kPa	760.54 ± 4.6
363.15 K, 17030 kPa	761.52 ± 4.6
363.15 K, 18010 kPa	762.51 ± 4.6
363.15 K, 19000 kPa	763.47 ± 4.6
363.15 K, 20020 kPa	764.42 ± 4.6

From the NIST ThermoML archive (doi:10.1021/acs.jced.8b00554)
